Test results: patent publication US20260364024A1, “A SCALABLE AND CONTINUOUS METHOD TO PREPARE SOLID DRUG NANOPARTICLES FOR OCULAR DISEASE THERAPY” (The Curators of the University of Missouri, priority 2023, published 2026)
Where a name gives a salt, the structure may show the parent alone.

Legend:
[1] = In vitro drug release by dialysis in PBS; format: physicochemical; conditions: from BT/BH solution; within 4 h, PBS pH 7.4, 37 °C, sink condition
Protocol: The tube was then immersed in 5 mL of PBS, and the set was incubated at 37 °C with shaking (100 rpm). At predetermined intervals, 100 μL of the release medium (PBS) was withdrawn and replaced with equal volume of fresh medium. […] These experiments were carried out in triplicate.
Because the BM/BX SDNs are composed of hydrophobic drugs, the release was expected to slow down in comparison to their hydrophilic counterparts BT and BH.

[2] = Ex vivo cornea permeation (Franz diffusion cell); format: in vitro ADME; conditions: from BT/BH solution, within 4 h, 37 °C, rabbit cornea
Protocol: After using dextran to confirm the intactness of cornea extracted from fresh rabbit eyes, that cornea was mounted between the donor chamber and receptor chamber of a Franz diffusion cell system. […] The set was incubated at 37 °C. At predetermined intervals up to 12 h, an aliquot of 100 μL was withdrawn from the receptor chamber and analyzed by LC-MS. An equal volume of fresh PBS was supplemented to the receptor chamber following each sampling. FITC-labeled Dextran was tested to confirm the intactness of the cornea, and the permeation of the FITC-labeled Dextran was quantified by measuring the fluorescence intensity of FITC (Emission: 525 nm, Excitation: 490 nm) using a microplate reader.

[3] = eye drops, salt form; background statement; cited from earlier work

BH released [1]	SMILES	hydrophilic counterpart penetrated across the cornea [2]	bioavailability [3]	BT released [1]
> 70%	CC(C)NCC(O)COc1ccc(CCOCC2CC2)cc1 (stereo not drawn) [BH, betaxolol hydrochloride]	less than 10%	less than 5%	
	Brc1c(NC2=NCCN2)ccc2nccnc12.O=C(O)C(O)C(O)C(=O)O [BT, brimonidine tartrate]	less than 10%	less than 5%	more than 60%
